For the experiment, the target named is G protein-coupled receptor kinase 6 (Homo sapiens, UniProt P43250). The experiment in a line: Inhibition of human recombinant full-length GST-tagged human GRK6 using peptide substrate peptide-216 incubated for 7 hrs.

Results on 44 compounds are retold here after ChEMBL document CHEMBL3714720, “Inhibiting G-protein coupled receptor 6 kinase polypeptides” (2014).

Each structure is given as a SMILES string.

For orientation: IC50 means the concentration that gives 50% inhibition.

G protein-coupled receptor kinase 6, sequence (P43250 whole entry): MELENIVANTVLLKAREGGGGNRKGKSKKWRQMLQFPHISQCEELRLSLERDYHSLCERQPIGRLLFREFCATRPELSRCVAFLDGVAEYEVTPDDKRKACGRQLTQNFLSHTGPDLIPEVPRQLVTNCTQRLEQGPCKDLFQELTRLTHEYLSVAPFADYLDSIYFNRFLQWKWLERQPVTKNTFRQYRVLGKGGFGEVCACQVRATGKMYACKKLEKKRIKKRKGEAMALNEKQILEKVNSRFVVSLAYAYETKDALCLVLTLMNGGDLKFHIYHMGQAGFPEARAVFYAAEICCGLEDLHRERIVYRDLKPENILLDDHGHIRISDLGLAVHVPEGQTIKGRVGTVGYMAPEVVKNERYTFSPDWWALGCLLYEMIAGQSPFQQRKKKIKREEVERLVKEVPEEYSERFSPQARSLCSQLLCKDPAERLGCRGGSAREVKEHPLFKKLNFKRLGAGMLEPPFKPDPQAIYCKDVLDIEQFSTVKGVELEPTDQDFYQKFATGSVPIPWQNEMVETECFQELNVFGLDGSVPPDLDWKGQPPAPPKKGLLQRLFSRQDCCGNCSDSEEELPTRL

On to `Cc1cccc(-c2nnc(SCC(=O)O)n2C)c1`, for which the IC50 was greater than 100 µM. As for `COc1cc([N+](=O)[O-])ccc1-c1nnc(SCC(=O)O)[nH]1`, the figure is greater than 100 µM. In the case of `O=C(O)CSc1nnc(-c2cccc(C(=O)O)c2)[nH]1`, the IC50 was greater than 74 µM. To `CN1CCN(c2ccc(-c3nnc(SCC(=O)O)[nH]3)c(F)c2)CC1` belongs greater than 100 µM; to `COc1ccc(-c2nnc(SCC(=O)O)[nH]2)cc1[N+](=O)[O-]`, 1.05 µM; to `Cc1cccc(-c2nnc(SC(C)C(=O)O)n2C)c1` (centres undefined), greater than 100 µM. To `COc1cccc(-c2nnc(SCC(=O)O)[nH]2)c1OCc1ccccc1` belongs greater than 100 µM. To `CC(=O)CSc1nnc(-c2cccc(C)c2)[nH]1` belongs greater than 100 µM; to `Cc1ccc(-c2nnc(SCC(=O)O)[nH]2)cc1[N+](=O)[O-]`, 0.751 µM; to `NC(=O)c1ccccc1-c1nnc(SCC(=O)O)[nH]1`, greater than 100 µM.

As for `COc1cc(-c2nnc(SCC(=O)O)[nH]2)c([N+](=O)[O-])cc1OC`, the IC50 was greater than 100 µM. To `COc1cc([N+](=O)[O-])cc(-c2nnc(SCC(=O)O)[nH]2)c1O` belongs 34.8 µM. To `COc1cc(O)cc(OC)c1-c1nnc(SCC(=O)O)[nH]1` belongs greater than 100 µM; to `COc1ccc(OC)c(-c2nnc(SCC(=O)O)[nH]2)c1`, greater than 100 µM.

On to `COc1cccc(O)c1-c1nnc(SCC(=O)O)[nH]1`, for which the IC50 is greater than 100 µM. `COc1cc(OC)c(-c2nnc(SCC(=O)O)[nH]2)cc1OC`: the IC50 was greater than 100 µM. Regarding `O=C(O)CSc1nnc(-c2ccccc2N2CCOCC2)[nH]1`, the IC50 was greater than 100 µM. For `COC(=O)c1ccccc1-c1nnc(SCC(=O)O)[nH]1`, the IC50 is greater than 100 µM. As for `O=C(O)CSc1nnc(-c2ccccc2C(=O)O)[nH]1`, the figure is greater than 100 µM; as for `O=C(O)COc1ccccc1-c1nnc(SCC(=O)O)[nH]1`, greater than 100 µM.

With `O=C(O)CSc1nnc(-c2cc([N+](=O)[O-])ccc2O)[nH]1`, the IC50 is 14.1 µM.

Regarding `COc1ccc(-c2nnc(SCC(=O)O)[nH]2)c(OC)c1C`, the IC50 is greater than 100 µM. With `COc1ccc([N+](=O)[O-])cc1-c1nnc(SCC(=O)O)[nH]1`, the 50% inhibitory concentration (IC50) was determined as 77.5 µM. To `O=C(O)CSc1nnc(-c2cccc([N+](=O)[O-])c2O)[nH]1` belongs greater than 70 µM; to `O=C(O)CSc1nnc(-c2cc(C(=O)O)ccc2O)[nH]1`, greater than 100 µM; to `COc1cccc(OC)c1-c1nnc(SCC(=O)O)[nH]1`, greater than 100 µM. To `Cc1cccc(-c2n[nH]c(SCC(N)=O)n2)c1` belongs greater than 100 µM; to `COc1cc(N(C)C)ccc1-c1nnc(SCC(=O)O)[nH]1`, greater than 100 µM; to `COC(=O)CSc1nnc(-c2cccc(C)c2)[nH]1`, greater than 100 µM. As for `COc1ccc(-c2nnc(SCC(=O)O)[nH]2)c(OC)c1OC`, the figure is greater than 100 µM; as for `COc1c(F)cccc1-c1nnc(SCC(=O)O)[nH]1`, greater than 100 µM.

Take `COc1cc(-c2nnc(SCC(=O)O)[nH]2)ccc1F`: the IC50 is 4.52 µM. To `O=C(O)CSc1nnc(-c2ccccc2OCCN2CCCC2)[nH]1` belongs greater than 100 µM. To `Cc1coc(-c2ccccc2NS(=O)(=O)c2ccc(S(=O)(=O)N3CCCCCC3)cc2)c1` belongs greater than 60 µM; to `Cc1cccc(-c2nnc(SCCC(=O)O)[nH]2)c1`, greater than 100 µM. To `Cc1cccc(-c2nnc(SCCC(=O)O)n2C)c1` belongs greater than 100 µM; to `CN(C)CCCOc1ccccc1-c1nnc(SCC(=O)O)[nH]1`, greater than 100 µM.

On to `CN(C)c1ccc(-c2nnc(SCC(=O)O)[nH]2)cc1`, for which the IC50 is greater than 100 µM. Regarding `COc1ccc(NC(c2ccccn2)c2ccc3cccnc3c2O)cc1` (centres undefined), the IC50 came out at 10.3 µM.

With `COc1cccc(-c2nnc(SCC(=O)O)[nH]2)c1OC`, the IC50 is greater than 100 µM. To `Cc1cccc(-c2nnc(SCC(=O)N(C)C)[nH]2)c1` belongs greater than 100 µM; to `Cc1cccc(Oc2ccc(-c3nnc(SCC(=O)O)[nH]3)cc2[N+](=O)[O-])c1`, 3.58 µM; to `COc1ccc(-c2nnc(SCC(=O)O)[nH]2)c(Cl)c1OC`, greater than 100 µM. Regarding `COc1cc(-c2nnc(SCC(=O)O)[nH]2)cc(F)c1O`, the IC50 turned out to be 3.3 µM.
